Earlier results, collected in patent US20090239812A1, “USE OF C7 SUGARS IN PREVENTION AND TREATMENT OF MYCOSES” (Laboratoires Expanscience, priority 2006, published 2009).

System: Ehrlich's ascites tumor cells
Conditions: perseitol associated with a potassium ion; Shibuya et al. 1999

**Q.** For `OCC(O)C(O)C(O)C(O)C(O)CO` (stereo not shown) [perseitol, Perseitol], which “incorporation of 3H-leucine” value is on record?
**A.** Its value is “inhibits”.
